Reference: patent US7276352B2, “Induction of β cell differentiation in human cells by stimulation of the GLP-1 receptor” (The Regents of the University of California, priority 2000, dated 2007)

Key:
βlox5 cells [1] = assay: RT-PCR analysis of pancreatic hormone gene expression in βlox5 cells; type: cell-based, human; conditions: for hormone expression in βlox5 cells: βlox5 cells expressing PDX-1, data not shown
Source text: FIG. 2: RT-PCR analysis of pancreatic hormone gene expression in βlox5. The conditions tested were βlox5 cells grown in monolayer culture, βlox5 cells infected with a retroviral vector expressing PDX-1, βlox5 cells grown as three-dimensional aggregates, and βlox5 cells treated with exendin-4. FIG. 2(A) insulin; FIG. 2(B) quantitative RT-PCR analysis of insulin gene expression; FIG. 2(C) other pancreatic hormones. Aggregation of cells into three-dimensional clusters and the retroviral vector expressing PDX-1 have been described previously (Itkin-Ansari et al., submitted). Exendin-4 (Sigma) was used at a concentration of 10 nM. RT-PCR for insulin, somatostatin, glucagon, and IAPP have been described previously (Itkin-Ansari et al., submitted). Quantitative RT-PCR was done by interpolation from a standard curve constructed using a plasmid containing the human insulin cDNA.
PDX-1 also acted synergistically with cell-cell contact to further increase the level of […] expression about 1,000-fold above the cells not expressing PDX-1, to a level similar to that found in normal human islets. To determine whether βlox5 could be induced to express pancreatic hormones, recombinant PDX-1 was expressed in βlox5 using a retroviral vector. […] Therefore, other factors were examined for their ability to induce hormone expression in βlox5 cells expressing PDX-1. Activin and betacellulin have been reported to be able to induce endocrine differentiation in cell lines and primary cells (Mashima et al., Diabetes 48:304-9 (1999), Huotari et al., Endocrinology 139, 1494-9 (1998), Mashima et al., J Clin Invest 97:1647-54 (1996), Yamaoka et al, J Clin Invest 102:294-301 (1998)). However, they had no effect on hormone expression in βlox5 cells (data not shown).
GLP-1, a small peptide cleaved from the proglucagon molecule, is an insulin secretogogue Drucker et al., Diabetes 47:159-69 (1998)).
By itself, exendin-4 had no effect on hormone expression in βlox5 (FIG. 2A, lane 8). […] The nature of the interaction between exendin-4, cell-cell contact, and PDX-1 is evident from the fact that no hormone mRNA was detectable with any one or two of the three inducing factors (FIG. 2A). […] Islet amyloid polypeptide (IAPP) mRNA, a hormone that is co-secreted with insulin, was also expressed in induced βlox5 cells (FIG. 2C, lane 2). However, the other major pancreatic hormones, glucagon, somatostatin, and pancreatic polypeptide (PP), were not induced (FIG. 2C).

βlox5 cells [2] = assay: Analysis of transcription factors expressed in βlox5 cells (RT-PCR, Western blot); type: cell-based, human
Procedure: FIG. 3: Analysis of transcription factors expressed in βlox5 cells. FIG. 3(A) electrophoretic mobility shift assay (EMSA) of PDX-1. EM5A for PDX-1 was performed using a probe derived from the human insulin promoter A5 element. FIGS. 3(B&C) RT-PCR analysis of BETA2 and Pax6. FIG. 3(D) Western blot analysis of CREB. FIG. 3(E) EMSA of RIPE3b.
The expression of transcription factors important in β-cell development was examined to determine whether they had been induced by PDX-1, cell-cell contact, and exendin-4. […] GLP-1 has been reported to increase cAMP levels and this has been thought to be a major mechanism by which GLP-1 acts as an insulin secretogogue (Serre et al., Endocrinology 139:4448-54 (1998)). […] RIPE3b, a factor that plays a critical role in insulin gene expression but that has not yet been cloned, is expressed in βlox5 irrespective of PDX-1, cell-cell contact, or exendin-4 (FIG. 3E).

[3] = induced βlox5 cells (PDX-1, cell-cell contact, exendin-4 10 nM)

For Activin, the “hormone expression in βlox5 cells” value (βlox5 cells [1]) was “no effect”.

For exendin-4, the “hormone expression in βlox5” value (βlox5 cells [1]; exendin-4 by itself, 10 nM, four days, no PDX-1, no aggregation) was “no effect”, the “Islet amyloid polypeptide (IAPP) mRNA” value (βlox5 cells [1]; [3]) was “expressed” and the “glucagon, somatostatin and pancreatic polypeptide (PP) expression” value (βlox5 cells [1]; [3]) was “not induced”. For the same molecule, the “insulin mRNA” value (βlox5 cells [1]; βlox5 cells expressing PDX-1, suspension culture as three-dimensional aggregates, 10 nM exendin-4 for four days) was “substantial amount of insulin mRNA was detectable”, the BETA2 expression (βlox5 cells [2]; PDX-1, cell-cell contact and exendin-4, RT-PCR) was “induced only by the combination of all three inducing factors” and the CREB expression (βlox5 cells [2]; exendin-4 alone, independently of cell-cell contact and PDX-1, Western blot) was “induced”.

B1: betacellulin (protein, UniProt P35070 32-111, looked up)
Betacellulin: DGNSTRSPETNGLLCGDPEENCAATTTQSKRKGHFSRCPKQYKHYCIKGRCRFVVAEQTPSCVCDEGYIGARCERVDLFY
notes: factor reported to be able to induce endocrine differentiation in cell lines and primary cells
B1 was tested, and the “hormone expression in βlox5 cells” value (βlox5 cells [1]) was “no effect”.
